Patent US20160166488A1, “MEDICAMENT” (SYMRISE AG, priority 2013, published 2016)

Tested on: MMP-1
Test: Inhibition of MMP-1 synthesis: release of MMP-1 from dermal fibroblasts as an effect of UV radiation (Amersham kit RPN2610)
Format: cell-based
Conditions: dermal fibroblast culture, test product conc. 0.001 % w/v, incubation 36 h at 37° C., threefold determination; for MMP with UVA: with UVA (method text: UVB radiation 50 mJ/cm^2)
Description: Inhibition of MMP-1 Synthesis
The capacity of the test substances to alleviate the toxic effect of UVA radiation was investigated. A culture of dermal fibroblasts was used as an in vitro system, and the release of MMP-1 from these fibroblasts as an effect of UV radiation was determined. In order to carry out the experiment, a fibroblast culture with fetal calf serum was prepared and inoculated with the test substances 2 days thereafter. After incubation for 36 h at 37° C. with a CO2 level of 5 vol %, the nutrient medium was replaced with an electrolyte solution, and the fibroblasts were damaged with a specified dose of UVB radiation (50 mJ/cm^2). Determination of MMP was carried out with a kit that is commercially available from the firm Amersham under the name RPN2610. The amount of MMP is given in ng/ml from a test series with threefold determination.

CCCCC(CC)COC(=O)C(C#N)=C(c1ccccc1)c1ccccc1 (centres unmarked) [Octocrinyl, 2-cyano-3,3-phenylcinnamic acid-2-ethylhexyl ester]
MMP with UVA: 100 ± 20 rel. % | MMP without UVA: 17 ± 7 rel. %

CCCCCCOC(=O)c1ccccc1C(=O)c1ccc(N(CC)CC)cc1O [Uvinul A, 2-(4-diethylamino-2-hydroxybenzoyl)-benzoic acid hexyl ester]
MMP with UVA: 99 ± 12 rel. % | MMP without UVA: 17 ± 3 rel. %

C[N+](C)(C)C[C@H](O)CC(=O)O.[Cl-] [Carnitine*HCl]
MMP with UVA: 118 ± 21 rel. % | MMP without UVA: 24 ± 7 rel. %

NCCC(=O)N[C@@H](Cc1cnc[nH]1)C(=O)O [L-carnosine]
MMP with UVA: 101 ± 17 rel. % | MMP without UVA: 22 ± 5 rel. %
